Source: patent US20250144039A1, “COMPOSITIONS COMPRISING SURFACE MODIFIED GLOBULAR NANO-PARTICLES” (LANDA LABS (2012) LTD., priority 2022, published 2025)

Tests used:
[1] = Zeta potential measurement (Malvern Zetasizer Nano ZS); assay type: physicochemical; details: 0.1 g dispersed in 9.9 g of distilled water
Method: • Oven: DFO-240, by MRC, Israel • Thermo-rheometer: Thermo Scientific (Germany) Haake Mars III, with a C20/1° spindle, a gap of 0.052 mm, and a shear rate of 10 sec^−1 • Sonicator: VCX 750, by Sonics & Materials, USA • Dynamic Light Scattering and Zeta Potential measurement: Malvern Zetasizer Nano ZS, Malvern Instruments Ltd., UK • Conductivity meter: Eutech CON 700 by Thermo Fisher Scientific, USA • CryoTEM: Talos 200C by Thermo Fisher Scientific, USA, with a Lacey grid • Fluorescence microscope: BX60 microscope, equipped with a digital camera model DP73, by Olympus, Japan
8 g of double distilled water were placed in a 20 ml glass vial. 2 g of the nano-dispersion ND1 obtained in Example 2 were added, and the contents of the vial were shaken by hand for about 10 seconds until a homogeneous mixture was obtained (referred to as charged ND1 or cND1). Zeta potential of the mixture was measured by Malvern Zetasizer Nano ZS and found to be −14.7 mV. Unless otherwise stated, all measurements made with this instrument (e.g., zeta potential and particle size distribution) were performed on samples diluted 1:100 in double distilled water. All pH measurements reported in this and following examples were made at least using a pH test strip adapted to the pH range of relevance, and confirmed in some cases by using a suitable pH meter.

skin of pigs' ears = experiment: Ex vivo penetration of composition into skin of pigs' ears (fluorescent marker histology); assay type: in vitro ADME; details: Nile red marker; pig ear skin, 20 hours at 32° C.
Method: The distribution of nano-elements of the present compositions in various skin layers was tested ex vivo by applying core-shell and core-multi-shells (including a second shell forming active agent) nano-elements onto the skin of pigs' ears, the cores of the tested compositions including a fluorescent dye (Nile red) allowing histological monitoring.
The following test and control compositions were prepared and used as set in Table 9.
Tested compositions (2) and (3) were prepared by adding 2 mg of Nile red fluorescent marker during the preparation of the CSSC/fatty amine premix, as described in Example 6. All tested compositions were stored in closed containers at room temperature until they were used.
The compositions were tested on three freshly harvested pig ears, collected on the same day, and kept fresh and cooled till use. The ears were washed with excess saline solution and wiped dry. They were then immobilized for the duration of the study by taping them onto a glass surface, their inner side facing down. Each ear was marked on its outer side with 6 circles having a diameter of about 1 cm. […]
The above tissue sections were evaluated by an expert for the presence and intensity of the marker using a fluorescence microscope at objective magnification of ×10 and ×20.

| Compound | Zeta potential of active agent alone [1] [mV] | penetration into skin layers (fluorescence microscopy) (skin of pigs' ears) |
| --- | --- | --- |
| Sodium hyaluronate [LMW HA] | −17 | – |
| CCN(CC)c1ccc2nc3c4ccccc4c(=O)cc-3oc2c1 [Nile red, 9-(diethylamino)-5H-benzo[a]phenoxazin-5-one] | – | No penetration of the fluorescent marker was observed |
